# Reference: paper PMC6735358, “Synthesis and bioevaluation of novel steroidal isatin conjugates derived from epiandrosterone/androsterone” (Journal of Enzyme Inhibition and Medicinal Chemistry, 2019)
# Key:
# [1] = test system: A875 (Human melanoma cell line); assay: MTT in vitro cytotoxicity, A875; conditions: A875, 72 h, read-out: In vitro cytotoxicity IC50
# Method: (§2) After removal of the growth medium, six serial dilutions of each tested compound in 200 µL test medium were added. Plates were incubated at 37 °C in a humidified atmosphere containing 5% CO2. After 72 h of exposure, the culture medium was removed and 30 µL of the MTT solution (5 mg/mL in PBS) was added to each well. The plate was further incubated for 4 h to allow MTT formazan formation. To dissolve the resulting MTT formazan, 50 µL of DMSO was added to each well, followed by thorough mixing with a microplate shaker. Absorbance at 570 nm was measured on a microplate reader (Thermo Scientific, MK3). […] Assays were performed in triplicate on three independent experiments.
# [2] = test system: HepG2 (Human hepatocellular liver carcinoma cell line); assay: MTT in vitro cytotoxicity, HepG2; conditions: HepG2, 72 h, read-out: In vitro cytotoxicity IC50
# Method: as §2
# [3] = In vitro cytotoxicity, normal cells HL-7702; conditions: human
# Method: (§1) Assays were performed in triplicate on three independent experiments.
# [4] = test system: SGC-7901 (Human gastric cancer cell line); assay: MTT in vitro cytotoxicity, SGC-7901; conditions: SGC-7901, 72 h, read-out: In vitro cytotoxicity IC50
# Method: as §2
# [5] = test system: SGC-7901, A875 and HepG2 cell lines; assay: MTT in vitro cytotoxicity, tested cancer cell lines together; assay type: cell-based, human; conditions: for IC50: Homo sapiens, span over SGC-7901, A875, HepG2, read-out: range of IC50 value over the tested cancer cell lines; for dose-response of cell growth inhibition: SGC-7901, A875 and HepG2, Figure 4
# Method: as §1
smiles,measurement,setting,value
C[C@]12CC[C@@H](O)C[C@@H]1CC[C@@H]1[C@@H]2CC[C@]2(C)C(=O)CC[C@@H]12 [Androsterone],IC50,[1],> 100 µM
same,IC50,[2],> 100 µM
same,IC50,[3],> 100 µM
same,IC50,[4],> 100 µM
"C[C@]12CC[C@@H](O)C[C@@H]1CC[C@@H]1[C@@H]2CC[C@]2(C)C(=NN=C3C(=O)Nc4ccc(F)cc43)CC[C@@H]12 [6b, 5-Fluoro-3-(((3R,5S,8R,9S,10S,13S,14S)-3-hydroxy-10,13-dimethyldodecahydro-1H-cyclopenta[a]phenanthren-17(2H,10H,14H)-ylidene)hydrazono)indolin-2-one]",IC50,[1],42.2 ± 8.19 µM
same,IC50,[2],32.3 ± 4.21 µM
same,IC50,[3],7.09 ± 1.57 µM
same,IC50,[4],9.51 ± 0.49 µM
"C[C@]12CC[C@H](O)CC1CC[C@@H]1[C@@H]2CC[C@]2(C)C(=NN=C3C(=O)Nc4ccccc43)CC[C@@H]12 (stereo partly drawn) [3a, 3-(((3S,8R,9S,10S,13S,14S)-3-Hydroxy-10,13-dimethyldodecahydro-1H-cyclopenta[a]phenanthren-17(2H,10H,14H)-ylidene)hydrazono)indolin-2-one]",IC50,[1],9.51 ± 1.34 µM
same,IC50,[2],6.72 ± 1.59 µM
same,IC50,[3],5.65 ± 1.59 µM
same,IC50,[4],7.69 ± 2.54 µM
"C[C@]12CC[C@@H](O)C[C@@H]1CC[C@@H]1[C@@H]2CC[C@]2(C)C(=NN=C3C(=O)Nc4ccc([N+](=O)[O-])cc43)CC[C@@H]12 [6g, 3-(((3R,5S,8R,9S,10S,13S,14S)-3-Hydroxy-10,13-dimethyldodecahydro-1H-cyclopenta[a]phenanthren-17(2H,10H,14H)-ylidene)hydrazono)-5-nitroindolin-2-one]",IC50,[1],3.85 ± 1.44 µM
same,IC50,[2],4.31 ± 0.92 µM
same,IC50,[3],11.2 ± 3.05 µM
same,IC50,[5],3.85 to 6.4 µM
same,dose-response of cell growth inhibition,[5],dose-dependent manner
same,IC50,[4],6.4 ± 1.74 µM
"C[C@]12CC[C@@H](O)C[C@@H]1CC[C@@H]1[C@@H]2CC[C@]2(C)C(=NN=C3C(=O)Nc4ccccc43)CC[C@@H]12 [6a, 3-(((3R,5S,8R,9S,10S,13S,14S)-3-Hydroxy-10,13-dimethyldodecahydro-1H-cyclopenta[a]phenanthren-17(2H,10H,14H)-ylidene)hydrazono)indolin-2-one]",IC50,[1],21.7 ± 4.82 µM
same,IC50,[2],20.4 ± 6.69 µM
same,IC50,[3],8.29 ± 2.24 µM
same,IC50,[4],13.8 ± 2.65 µM
C[C@]12CC[C@H](O)C[C@@H]1CC[C@@H]1[C@@H]2CC[C@]2(C)C(=O)CC[C@@H]12 [Epiandrosterone],IC50,[1],63.6 ± 13.2 µM
same,IC50,[2],36.7 ± 10.6 µM
same,IC50,[3],91.2 ± 12.3 µM
same,IC50,[4],69.8 ± 8.47 µM
"C[C@]12CC[C@@H](O)C[C@@H]1CC[C@@H]1[C@@H]2CC[C@]2(C)C(=NN=C3C(=O)Nc4ccc(Cl)cc43)CC[C@@H]12 [6c, 5-Chloro-3-(((3R,5S,8R,9S,10S,13S,14S)-3-hydroxy-10,13-dimethyldodecahydro-1H-cyclopenta[a]phenanthren-17(2H,10H,14H)-ylidene)hydrazono)indolin-2-one]",IC50,[1],8.78 ± 0.64 µM
same,IC50,[2],4.84 ± 1.05 µM
same,IC50,[3],6.36 ± 1.37 µM
same,dose-response of cell growth inhibition,[5],dose-dependent manner
same,IC50,[4],6.83 ± 2.01 µM
"Cc1ccc2c(c1)C(=NN=C1CC[C@H]3[C@@H]4CCC5C[C@@H](O)CC[C@]5(C)[C@H]4CC[C@]13C)C(=O)N2 (stereo partly drawn) [3f, 3-(((3S,8R,9S,10S,13S,14S)-3-Hydroxy-10,13-dimethyldodecahydro-1H-cyclopenta[a]phenanthren-17(2H,10H,14H)-ylidene)hydrazono)-5-methylindolin-2-one]",IC50,[1],6.01 ± 1.95 µM
same,IC50,[2],6.91 ± 0.58 µM
same,IC50,[3],6.08 ± 0.54 µM
same,IC50,[4],7.06 ± 1.27 µM
"C[C@]12CC[C@H](O)CC1CC[C@@H]1[C@@H]2CC[C@]2(C)C(=NN=C3C(=O)Nc4ccc(F)cc43)CC[C@@H]12 (stereo partly drawn) [3b, 5-Fluoro-3-(((3S,8R,9S,10S,13S,14S)-3-hydroxy-10,13-dimethyldodecahydro-1H-cyclopenta[a]phenanthren-17(2H,10H,14H)-ylidene)hydrazono)indolin-2-one]",IC50,[1],8.58 ± 1.64 µM
same,IC50,[2],6.12 ± 1.79 µM
same,IC50,[3],5.49 ± 1.33 µM
same,dose-response of cell growth inhibition,[5],dose-dependent manner
same,IC50,[4],6.67 ± 1.77 µM
"C[C@]12CC[C@@H](O)C[C@@H]1CC[C@@H]1[C@@H]2CC[C@]2(C)C(=NN=C3C(=O)Nc4ccc(Br)cc43)CC[C@@H]12 [6d, 5-Bromo-3-(((3R,5S,8R,9S,10S,13S,14S)-3-hydroxy-10,13-dimethyldodecahydro-1H-cyclopenta[a]phenanthren-17(2H,10H,14H)-ylidene)hydrazono)indolin-2-one]",IC50,[1],8.08 ± 0.51 µM
same,IC50,[2],6.1 ± 2.09 µM
same,IC50,[3],4.4 ± 0.68 µM
same,IC50,[4],7.14 ± 1.41 µM
"C[C@]12CC[C@H](O)CC1CC[C@@H]1[C@@H]2CC[C@]2(C)C(=NN=C3C(=O)Nc4ccc(I)cc43)CC[C@@H]12 (stereo partly drawn) [3e, 3-(((3S,8R,9S,10S,13S,14S)-3-Hydroxy-10,13-dimethyldodecahydro-1H-cyclopenta[a]phenanthren-17(2H,10H,14H)-ylidene)hydrazono)-5-iodoindolin-2-one]",IC50,[1],23.8 ± 4.39 µM
same,IC50,[2],18.6 ± 4.79 µM
same,IC50,[3],14 ± 2.83 µM
same,IC50,[4],21.7 ± 3.86 µM
"C[C@]12CC[C@@H](O)C[C@@H]1CC[C@@H]1[C@@H]2CC[C@]2(C)C(=NN=C3C(=O)Nc4cc(F)ccc43)CC[C@@H]12 [6h, 6-Fluoro-3-(((3R,5S,8R,9S,10S,13S,14S)-3-hydroxy-10,13-dimethyldodecahydro-1H-cyclopenta[a]phenanthren-17(2H,10H,14H)-ylidene)hydrazono)indolin-2-one]",IC50,[1],7.71 ± 2.13 µM
same,IC50,[2],5.41 ± 1.44 µM
same,IC50,[3],12.8 ± 2.79 µM
same,IC50,[4],9.2 ± 1.68 µM
"C[C@]12CC[C@H](O)CC1CC[C@@H]1[C@@H]2CC[C@]2(C)C(=NN=C3C(=O)Nc4ccc([N+](=O)[O-])cc43)CC[C@@H]12 (stereo partly drawn) [3g, 3-(((3S,8R,9S,10S,13S,14S)-3-Hydroxy-10,13-dimethyldodecahydro-1H-cyclopenta[a]phenanthren-17(2H,10H,14H)-ylidene)hydrazono)-5-nitroindolin-2-one]",IC50,[1],26.2 ± 4.59 µM
same,IC50,[2],19.4 ± 3.37 µM
same,IC50,[3],33.4 ± 6.15 µM
same,IC50,[4],11.9 ± 2.45 µM
"C[C@]12CC[C@H](O)CC1CC[C@@H]1[C@@H]2CC[C@]2(C)C(=NN=C3C(=O)Nc4ccc(Cl)cc43)CC[C@@H]12 (stereo partly drawn) [3c, 5-Chloro-3-(((3S,8R,9S,10S,13S,14S)-3-hydroxy-10,13-dimethyldodecahydro-1H-cyclopenta[a]phenanthren-17(2H,10H,14H)-ylidene)hydrazono)indolin-2-one]",IC50,[1],7.92 ± 1.95 µM
same,IC50,[2],2.39 ± 0.36 µM
same,IC50,[3],5.01 ± 1.37 µM
same,dose-response of cell growth inhibition,[5],dose-dependent manner
same,IC50,[4],4.92 ± 1.13 µM
"O=c1[nH]cc(F)c(=O)[nH]1 [5-FU, 5-Fluorouracil, reference compound]",IC50,[1],65.3 ± 7.3 µM
same,IC50,[2],63.2 ± 12.6 µM
same,IC50,[3]; HL-7702 normal liver cells,86 ± 9.61 µM
same,IC50,[4],62 ± 8.38 µM
"C[C@]12CC[C@@H](O)C[C@@H]1CC[C@@H]1[C@@H]2CC[C@]2(C)C(=NN=C3C(=O)Nc4ccc(I)cc43)CC[C@@H]12 [6e, 3-(((3R,5S,8R,9S,10S,13S,14S)-3-Hydroxy-10,13-dimethyldodecahydro-1H-cyclopenta[a]phenanthren-17(2H,10H,14H)-ylidene)hydrazono)-5-iodoindolin-2-one]",IC50,[1],19.7 ± 1.89 µM
same,IC50,[2],8.99 ± 3.13 µM
same,IC50,[3],18.5 ± 1 µM
same,IC50,[5],8 to 20 µM
same,IC50,[4],17.1 ± 3.68 µM
"C[C@]12CC[C@H](O)CC1CC[C@@H]1[C@@H]2CC[C@]2(C)C(=NN=C3C(=O)Nc4ccc(Br)cc43)CC[C@@H]12 (stereo partly drawn) [3d, 5-Bromo-3-(((3S,8R,9S,10S,13S,14S)-3-hydroxy-10,13-dimethyldodecahydro-1H-cyclopenta[a]phenanthren-17(2H,10H,14H)-ylidene)hydrazono)indolin-2-one]",IC50,[1],11.6 ± 2.84 µM
same,IC50,[2],8.29 ± 2.41 µM
same,IC50,[3],14.1 ± 3.79 µM
same,IC50,[4],8.43 ± 2.23 µM
"Cc1ccc2c(c1)C(=NN=C1CC[C@H]3[C@@H]4CC[C@H]5C[C@H](O)CC[C@]5(C)[C@H]4CC[C@]13C)C(=O)N2 [6f, 3-(((3R,5S,8R,9S,10S,13S,14S)-3-Hydroxy-10,13-dimethyldodecahydro-1H-cyclopenta[a]phenanthren-17(2H,10H,14H)-ylidene)hydrazono)-5-methylindolin-2-one]",IC50,[1],8.25 ± 1.97 µM
same,IC50,[2],4.85 ± 1.07 µM
same,IC50,[3],12.5 ± 4.36 µM
same,IC50,[4],9.12 ± 1.61 µM
"C[C@]12CC[C@H](O)CC1CC[C@@H]1[C@@H]2CC[C@]2(C)C(=NN=C3C(=O)Nc4cc(F)ccc43)CC[C@@H]12 (stereo partly drawn) [3h, 6-Fluoro-3-(((3S,8R,9S,10S,13S,14S)-3-hydroxy-10,13-dimethyldodecahydro-1H-cyclopenta[a]phenanthren-17(2H,10H,14H)-ylidene)hydrazono)indolin-2-one]",IC50,[1],6.85 ± 1.99 µM
same,IC50,[2],4.85 ± 0.84 µM
same,IC50,[3],7.87 ± 2.04 µM
same,IC50,[4],7.22 ± 1.17 µM
